Columns and labels:
[1] = test system: IPOHE (Ipomoea hederacea); assay: Preemergence herbicidal evaluation; type: in vivo, (L.) Jacq.; settings: rated 4-5 weeks after treatment
[2] = test system: ABUTH (Abutilon theophrasti); assay: Preemergence herbicidal evaluation; type: in vivo, Medic.; settings: rated 4-5 weeks after treatment
CYPIR (Cyperus iria) = assay: Flooded paddy, preemergence weed control; type: in vivo; settings: rated 3-4 weeks after treatment, 0-9 rating scale
In short: (§1)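 Seeds or propagules were planted in the top 0.5 cm of silt loam soil and kept flooded 1.5–3 cm above the surface throughout, then held in the greenhouse. Injury was rated visually on a 0–9 scale against untreated controls, covering stand, vigor, malformation, size and chlorosis.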

[3] = test system: ECHORC (Echinochloa oryzoides); assay: Flooded paddy, preemergence weed control; type: in vivo, Echinochloa oryzoides (Ard.) Fritsch.; settings: rated 3-4 weeks after treatment, 0-9 rating scale
In short: as §1

ZEAMX (Corn, Field) = assay: Preemergence herbicidal evaluation; type: in vivo, Zea mays, L.; settings: rated 4-5 weeks after treatment
[4] = test system: MOOVA (Monochoria vaginalis); assay: Flooded paddy, preemergence weed control; type: in vivo, Presl.; settings: rated 3-4 weeks after treatment, 0-9 rating scale
In short: as §1

[5] = test system: CHEAL (Chenopodium album); assay: Preemergence herbicidal evaluation; type: in vivo, L.; settings: rated 4-5 weeks after treatment
In short: (§2)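 Steps: mix seeds with potting soil; plant on ~1 inch soil per cup; spray compound in aqueous acetone; hold on greenhouse benches with routine watering; rate 0–9 visually against control at 4–5 weeks.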

[6] = test system: CASOB (Cassia obtusifolia); assay: Preemergence herbicidal evaluation; type: in vivo, L.; settings: rated 4-5 weeks after treatment
In short: as §2

[7] = test system: AMBEL (Ambrosia artemisifolia); assay: Preemergence herbicidal evaluation; type: in vivo, L.; settings: rated 4-5 weeks after treatment
In short: as §2

SETVI (Setaria viridis) = assay: Postemergence herbicidal evaluation; type: in vivo, (L.) Beau; settings: postemergence
In short: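 Visual injury score (0-9: stand, vigor, malformation, size, chlorosis, overall appearance vs untreated control) taken four to five weeks post-spray. Two-week-old seedlings received about 0.0040 to 1.000 kg/ha active compound in acetone/water with 0.5% TWEEN 20.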

[8] = test system: SAGPY (Sagittaria pygmaea); assay: Flooded paddy, preemergence weed control; type: in vivo, L.; settings: rated 3-4 weeks after treatment, 0-9 rating scale
In short: as §1

[9] = test system: TRZAWR (Wheat, Winter, cv Riband); assay: Postemergence herbicidal evaluation; type: in vivo, Triticum aestivum; settings: postemergence
In short: (§3)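 Visual 0–9 injury scores versus control plants, covering stand, vigour, malformation, size, chlorosis and general appearance, taken four to five weeks post-spray and averaged over replicate tests. Plants were sprayed at roughly two weeks old and held on greenhouse benches.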

[10] = test system: GLXMAW (Soybean, Williams); assay: Preemergence herbicidal evaluation; type: in vivo, Glycine max, (L.) Merr. cv Williams; settings: rated 4-5 weeks after treatment
ORYSAT (Rice, Tebonnet) = assay: Flooded paddy, post-transplant rice tolerance; type: in vivo, Oryza sativa, (L.) Tebonnet; settings: flooded paddy, post-transplant rice, rated 3-4 weeks after treatment, 0-9 rating scale
In short: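 Steps: transplant two ten-day-old seedlings into silt loam; flood to 1.5-3 cm above soil; apply herbicide post-transplant; maintain water on greenhouse benches; rate stand, vigor, malformation, size and chlorosis on a 0-9 visual scale versus control.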

[11] = test system: ECHCG (Echinochloa crus-galli); assay: Postemergence herbicidal evaluation; type: in vivo, (L.) Beau; settings: postemergence
In short: as §3

C[C@@H]1C[C@H](C)OC(c2nsc3cc(F)c(-n4c(=O)cc(C(F)(F)F)n(C)c4=O)cc23)O1 (stereo partly drawn) [Compound 67, 3-[3-[(4R,6S)-4,6-dimethyl-m-dioxan-2-yl]-6-fluoro-1,2-benzisothiazol-5-yl]-1-methyl-6-(trifluoromethyl)uracil]
3.0: ECHCG herbicidal rating ([11]; rate 0.0320 kg/ha)
4.5: herbicidal rating, CYPIR (CYPIR (Cyperus iria); rate 0.0080 kg/ha) | herbicidal rating, ECHORC ([3]; rate 0.0080 kg/ha)
5.5: Preemergence herbicidal rating CASOB ([6]; Rate 0.0620 kg/ha) | herbicidal rating, ORYSAT (rice tolerance) (ORYSAT (Rice, Tebonnet); rate 0.0080 kg/ha)
4.0: TRZAWR herbicidal rating ([9]; rate 0.0320 kg/ha) | TRZAWR herbicidal rating ([9]; rate 0.0620 kg/ha) | ECHCG herbicidal rating ([11]; rate 0.0620 kg/ha)
7.0: Preemergence herbicidal rating IPOHE ([1]; Rate 0.0620 kg/ha) | herbicidal rating, CYPIR (CYPIR (Cyperus iria); rate 0.0320 kg/ha) | SETVI herbicidal rating (SETVI (Setaria viridis); rate 0.0620 kg/ha) | herbicidal rating, SAGPY ([8]; rate 0.0320 kg/ha) | herbicidal rating, SAGPY ([8]; rate 0.1250 kg/ha)
1.5: herbicidal rating, SAGPY ([8]; rate 0.0080 kg/ha)
0.0: herbicidal rating, MOOVA ([4]; rate 0.0080 kg/ha)
5.0: Preemergence herbicidal rating CASOB ([6]; Rate 0.1250 kg/ha)
9.0: Preemergence herbicidal rating IPOHE ([1]; Rate 0.1250 kg/ha) | Preemergence herbicidal rating ABUTH ([2]; Rate 0.0620 kg/ha) | Preemergence herbicidal rating ABUTH ([2]; Rate 0.1250 kg/ha) | herbicidal rating, CYPIR (CYPIR (Cyperus iria); rate 0.1250 kg/ha) | herbicidal rating, ECHORC ([3]; rate 0.0320 kg/ha) | herbicidal rating, ECHORC ([3]; rate 0.1250 kg/ha) | Preemergence herbicidal rating ZEAMX (ZEAMX (Corn, Field); Rate 0.0620 kg/ha) | Preemergence herbicidal rating ZEAMX (ZEAMX (Corn, Field); Rate 0.1250 kg/ha) | herbicidal rating, MOOVA ([4]; rate 0.0320 kg/ha) | herbicidal rating, MOOVA ([4]; rate 0.1250 kg/ha) | Preemergence herbicidal rating CHEAL ([5]; Rate 0.0620 kg/ha) | Preemergence herbicidal rating CHEAL ([5]; Rate 0.1250 kg/ha) | Preemergence herbicidal rating AMBEL ([7]; Rate 0.0620 kg/ha) | Preemergence herbicidal rating AMBEL ([7]; Rate 0.1250 kg/ha) | SETVI herbicidal rating (SETVI (Setaria viridis); rate 0.0320 kg/ha) | Preemergence herbicidal rating GLXMAW ([10]; Rate 0.0620 kg/ha) | Preemergence herbicidal rating GLXMAW ([10]; Rate 0.1250 kg/ha) | herbicidal rating, ORYSAT (rice tolerance) (ORYSAT (Rice, Tebonnet); rate 0.0320 kg/ha) | herbicidal rating, ORYSAT (rice tolerance) (ORYSAT (Rice, Tebonnet); rate 0.1250 kg/ha)

Cc1sccc1-c1nsc2ccc(-n3c(=O)cc(C(F)(F)F)n(C)c3=O)cc12 [Compound 68, 2,4(1H,3H)-pyrimidinedione, 1-methyl-3-[3-(2-methyl-3-thienyl)-1,2-benzisothiazol-5-yl]-6-(trifluoromethyl)-]
9.0: Preemergence herbicidal rating ABUTH ([2]; Rate 0.1250 kg/ha) | Preemergence herbicidal rating ABUTH ([2]; Rate 0.2500 kg/ha) | herbicidal rating, CYPIR (CYPIR (Cyperus iria); rate 0.0320 kg/ha) | herbicidal rating, CYPIR (CYPIR (Cyperus iria); rate 0.1250 kg/ha) | herbicidal rating, ECHORC ([3]; rate 0.1250 kg/ha) | herbicidal rating, MOOVA ([4]; rate 0.0320 kg/ha) | herbicidal rating, MOOVA ([4]; rate 0.1250 kg/ha) | Preemergence herbicidal rating CHEAL ([5]; Rate 0.0620 kg/ha) | Preemergence herbicidal rating CHEAL ([5]; Rate 0.1250 kg/ha) | Preemergence herbicidal rating CHEAL ([5]; Rate 0.2500 kg/ha) | Preemergence herbicidal rating AMBEL ([7]; Rate 0.2500 kg/ha) | herbicidal rating, SAGPY ([8]; rate 0.1250 kg/ha)
2.5: Preemergence herbicidal rating ZEAMX (ZEAMX (Corn, Field); Rate 0.0620 kg/ha) | herbicidal rating, ORYSAT (rice tolerance) (ORYSAT (Rice, Tebonnet); rate 0.0320 kg/ha)
6.0: Preemergence herbicidal rating ZEAMX (ZEAMX (Corn, Field); Rate 0.2500 kg/ha)
0.0: herbicidal rating, CYPIR (CYPIR (Cyperus iria); rate 0.0080 kg/ha) | herbicidal rating, SAGPY ([8]; rate 0.0080 kg/ha) | herbicidal rating, SAGPY ([8]; rate 0.0320 kg/ha)
3.0: Preemergence herbicidal rating IPOHE ([1]; Rate 0.1250 kg/ha) | Preemergence herbicidal rating CASOB ([6]; Rate 0.1250 kg/ha) | Preemergence herbicidal rating GLXMAW ([10]; Rate 0.1250 kg/ha)
4.0: Preemergence herbicidal rating ZEAMX (ZEAMX (Corn, Field); Rate 0.1250 kg/ha) | SETVI herbicidal rating (SETVI (Setaria viridis); rate 0.0320 kg/ha) | TRZAWR herbicidal rating ([9]; rate 0.0320 kg/ha) | ECHCG herbicidal rating ([11]; rate 0.0320 kg/ha)
5.5: Preemergence herbicidal rating CASOB ([6]; Rate 0.2500 kg/ha)
0.5: Preemergence herbicidal rating CASOB ([6]; Rate 0.0620 kg/ha)
3.5: Preemergence herbicidal rating AMBEL ([7]; Rate 0.0620 kg/ha) | herbicidal rating, ORYSAT (rice tolerance) (ORYSAT (Rice, Tebonnet); rate 0.1250 kg/ha)
8.5: Preemergence herbicidal rating ABUTH ([2]; Rate 0.0620 kg/ha) | herbicidal rating, ECHORC ([3]; rate 0.0320 kg/ha)
1.5: Preemergence herbicidal rating IPOHE ([1]; Rate 0.0620 kg/ha) | Preemergence herbicidal rating GLXMAW ([10]; Rate 0.0620 kg/ha) | herbicidal rating, ORYSAT (rice tolerance) (ORYSAT (Rice, Tebonnet); rate 0.0080 kg/ha)
8.0: SETVI herbicidal rating (SETVI (Setaria viridis); rate 0.0620 kg/ha)
4.5: Preemergence herbicidal rating IPOHE ([1]; Rate 0.2500 kg/ha) | TRZAWR herbicidal rating ([9]; rate 0.0620 kg/ha)
7.0: herbicidal rating, ECHORC ([3]; rate 0.0080 kg/ha) | herbicidal rating, MOOVA ([4]; rate 0.0080 kg/ha)
5.0: Preemergence herbicidal rating AMBEL ([7]; Rate 0.1250 kg/ha) | ECHCG herbicidal rating ([11]; rate 0.0620 kg/ha)
7.5: Preemergence herbicidal rating GLXMAW ([10]; Rate 0.2500 kg/ha)

Cn1c(C(F)(F)F)cc(=O)n(-c2ccc3snc(C4OCC5(CO4)CO5)c3c2)c1=O (stereo not shown) [Compound 70, 1-methyl-3-(3-spiro[m-dioxane-5,2′-oxiran]-2-yl-1,2-benzisothiazol-5-yl)-6-(trifluoromethyl)uracil]
5.0: TRZAWR herbicidal rating ([9]; rate 0.0320 kg/ha)
4.0: Preemergence herbicidal rating IPOHE ([1]; Rate 0.0620 kg/ha) | ECHCG herbicidal rating ([11]; rate 0.0620 kg/ha)
5.5: TRZAWR herbicidal rating ([9]; rate 0.0620 kg/ha)
2.0: Preemergence herbicidal rating ZEAMX (ZEAMX (Corn, Field); Rate 0.0620 kg/ha) | Preemergence herbicidal rating CASOB ([6]; Rate 0.0620 kg/ha) | Preemergence herbicidal rating CASOB ([6]; Rate 0.1250 kg/ha)
3.0: Preemergence herbicidal rating GLXMAW ([10]; Rate 0.0620 kg/ha) | ECHCG herbicidal rating ([11]; rate 0.0320 kg/ha)
9.0: Preemergence herbicidal rating ABUTH ([2]; Rate 0.0620 kg/ha) | Preemergence herbicidal rating ABUTH ([2]; Rate 0.1250 kg/ha) | Preemergence herbicidal rating ZEAMX (ZEAMX (Corn, Field); Rate 0.1250 kg/ha) | Preemergence herbicidal rating CHEAL ([5]; Rate 0.0620 kg/ha) | Preemergence herbicidal rating CHEAL ([5]; Rate 0.1250 kg/ha) | Preemergence herbicidal rating AMBEL ([7]; Rate 0.1250 kg/ha) | SETVI herbicidal rating (SETVI (Setaria viridis); rate 0.0320 kg/ha) | SETVI herbicidal rating (SETVI (Setaria viridis); rate 0.0620 kg/ha) | Preemergence herbicidal rating GLXMAW ([10]; Rate 0.1250 kg/ha)
7.0: Preemergence herbicidal rating IPOHE ([1]; Rate 0.1250 kg/ha) | Preemergence herbicidal rating AMBEL ([7]; Rate 0.0620 kg/ha)
0.0: herbicidal rating, CYPIR (CYPIR (Cyperus iria); rate 0.0080 kg/ha) | herbicidal rating, CYPIR (CYPIR (Cyperus iria); rate 0.0320 kg/ha) | herbicidal rating, CYPIR (CYPIR (Cyperus iria); rate 0.1250 kg/ha) | herbicidal rating, ECHORC ([3]; rate 0.0080 kg/ha) | herbicidal rating, ECHORC ([3]; rate 0.0320 kg/ha) | herbicidal rating, ECHORC ([3]; rate 0.1250 kg/ha) | herbicidal rating, MOOVA ([4]; rate 0.0080 kg/ha) | herbicidal rating, MOOVA ([4]; rate 0.0320 kg/ha) | herbicidal rating, MOOVA ([4]; rate 0.1250 kg/ha) | herbicidal rating, SAGPY ([8]; rate 0.0080 kg/ha) | herbicidal rating, SAGPY ([8]; rate 0.0320 kg/ha) | herbicidal rating, SAGPY ([8]; rate 0.1250 kg/ha) | herbicidal rating, ORYSAT (rice tolerance) (ORYSAT (Rice, Tebonnet); rate 0.0080 kg/ha) | herbicidal rating, ORYSAT (rice tolerance) (ORYSAT (Rice, Tebonnet); rate 0.0320 kg/ha) | herbicidal rating, ORYSAT (rice tolerance) (ORYSAT (Rice, Tebonnet); rate 0.1250 kg/ha)

From patent US6706663B2, “Herbicidal 3-heterocyclic substituted benzisothiazole and benzisoxazole compounds” (Wyeth, priority 2000, dated 2004)
